Data on 32 compounds can be found in US12473289B2, “Heterocyclic compounds as delta-5 desaturase inhibitors and methods of use” (Amgen Inc., priority 2019, dated 2025).

Delta-5-Desaturase (D5D), sequence (O60427 whole entry, species assumed): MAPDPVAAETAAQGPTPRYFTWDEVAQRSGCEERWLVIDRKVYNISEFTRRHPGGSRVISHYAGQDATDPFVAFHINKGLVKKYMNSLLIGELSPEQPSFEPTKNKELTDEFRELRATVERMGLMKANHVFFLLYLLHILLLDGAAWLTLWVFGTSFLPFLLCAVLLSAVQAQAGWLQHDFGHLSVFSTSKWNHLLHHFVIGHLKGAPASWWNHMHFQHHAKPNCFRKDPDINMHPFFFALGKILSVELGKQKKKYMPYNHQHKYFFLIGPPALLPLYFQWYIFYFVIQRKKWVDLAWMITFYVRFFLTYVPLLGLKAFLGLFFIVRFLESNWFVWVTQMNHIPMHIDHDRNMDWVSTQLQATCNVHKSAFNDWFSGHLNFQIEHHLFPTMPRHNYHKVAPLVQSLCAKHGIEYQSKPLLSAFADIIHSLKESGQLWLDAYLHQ

In this assay the target is Delta-5-Desaturase (D5D) (Homo sapiens (Human), UniProt O60427). Put plainly: In vitro measurement of Delta-5-Desaturase inhibitory activity using DGLA-CoA and Arachidonyl-CoA mass spectrometric assays. Format: biochemical. Particulars: membrane preparations of D5D-overexpressing HEK293 6E cells; averaged over at least two independent runs. The gist of the method:
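DGLA-CoA and arachidonyl-CoA were read by RapidFire SPE triple-quad MS (negative mode, MRM) after a 1 h ambient-temperature reaction quenched with acetonitrile. Enzyme was D5D-overexpressing HEK293 6E membranes at 10 μg/mL final; substrate solution held 0.01 mM DGLA plus NADH, ATP and CoA. Inhibition was referenced to DMSO and no-enzyme wells; 4PL IC50.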
With `O=c1c(-c2cnn(-c3ccc(F)cc3)c2)c(C(F)(F)F)nc2ccccn12` [Example 1-46, 3-(1-(4-fluorophenyl)-1H-pyrazol-4-yl)-2-(trifluoromethyl)-4H-pyrido[1,2-a]pyrimidin-4-one], half-maximal inhibition (IC50) required 0.0364 µM.

`COc1ccn2c(=O)c(-c3cc(CC(F)(F)C(F)(F)F)no3)c(C(F)(F)F)nc2c1` [Example 60, 8-Methoxy-3-[3-(2,2,3,3,3-pentafluoropropyl)-1,2-oxazol-5-yl]-2-(trifluoromethyl)-4H-pyrido[1,2-a]pyrimidin-4-one] displayed an IC50 of 0.0749 µM.

The compound `CC[S@+]([O-])c1ccn2c(=O)c(-c3ccc(OCC(F)(F)F)cc3)c(C(F)(F)F)nc2c1` [Example 15-9, 8-((S)-ethylsulfinyl)-3-(4-(2,2,2-trifluoroethoxy)phenyl)-2-(trifluoromethyl)-4H-pyrido[1,2-a]pyrimidin-4-one] had a concentration for half-maximal inhibition (IC50) of 0.191 µM.

As for `O=C(O)c1ccn2c(=O)c(-c3ccc(OCC(F)(F)F)cc3)c(C(F)(F)F)nc2c1` [Example 2-2, 4-oxo-3-(4-(2,2,2-trifluoroethoxy)phenyl)-2-(trifluoromethyl)-4H-pyrido[1,2-a]pyrimidine-8-carboxylic acid], the concentration for half-maximal inhibition (IC50) worked out at 0.646 µM.

Regarding `Cc1cnc2nc(C(F)(F)F)c(-c3cnn(CC(F)(F)C(F)(F)F)c3)c(=O)n2c1` [Example 40-2, 7-methyl-3-[1-(2,2,3,3,3-pentafluoropropyl)-1H-pyrazol-4-yl]-2-(trifluoromethyl)-4H-[1,3]diazino[1,2-a]pyrimidin-4-one], the IC50 was 0.0518 µM.

The compound `COc1ccn2c(=O)c(-c3nc(OCC(F)(F)F)cs3)c(C(F)(F)F)nc2c1` [Example 51, 8-Methoxy-3-[4-(2,2,2-trifluoroethoxy)-1,3-thiazol-2-yl]-2-(trifluoromethyl)-4H-pyrido[1,2-a]pyrimidin-4-one] gave a 50% inhibitory concentration (IC50) of 2.98 µM.

For `O=c1c(-c2ccc(OCC(F)(F)F)cn2)c(C(F)(F)F)nc2ccccn12` [Example 7-2, 3-(5-(2,2,2-trifluoroethoxy)-2-pyridinyl)-2-(trifluoromethyl)-4H-pyrido[1,2-a]pyrimidin-4-one], the IC50 worked out at 5.23 µM.

`COc1cnc2nc(C(F)(F)F)c(-c3cnn(CC(F)(F)C(F)(F)F)c3)c(=O)n2c1` [Example 40-1, 7-Methoxy-3-[1-(2,2,3,3,3-pentafluoropropyl)-1H-pyrazol-4-yl]-2-(trifluoromethyl)-4H-[1,3]diazino[1,2-a]pyrimidin-4-one]: the midpoint of inhibition, the IC50, lay at 0.153 µM.

Take `N#Cc1ccc2nc(C(F)(F)F)c(-c3cnn(CC(F)(F)C(F)(F)F)c3)c(=O)n2c1` [Example 39-9, 4-oxo-3-[1-(2,2,3,3,3-pentafluoropropyl)-1H-pyrazol-4-yl]-2-(trifluoromethyl)-4H-pyrido[1,2-a]pyrimidine-7-carbonitrile]: the IC50 stood at 0.0473 µM.

The compound `COc1cc2nc(C(F)(F)F)c(-c3cnn(CCC(F)(F)F)c3)c(=O)n2cc1F` [Example 39-58, 7-fluoro-8-methoxy-2-(trifluoromethyl)-3-[1-(3,3,3-trifluoropropyl)-1H-pyrazol-4-yl]-4H-pyrido[1,2-a]pyrimidin-4-one] gave an IC50 of 0.0204 µM.

On to `O=c1ccn2c(=O)c(-c3cnn(CC(F)(F)C(F)(F)F)c3)c(C(F)(F)F)nc2n1CF` [Example 68, 1-(Fluoromethyl)-7-[1-(2,2,3,3,3-pentafluoropropyl)-1H-pyrazol-4-yl]-8-(trifluoromethyl)-1H,2H,6H-[1,3]diazino[1,2-a]pyrimidine-2,6-dione], for which the midpoint of inhibition, the IC50, lay at 0.0807 µM.

The compound `COc1cnn2c(=O)c(-c3cnn(CC(F)(F)C(F)(F)F)c3)c(C(F)(F)F)nc2c1` [Example 34, 8-Methoxy-3-[1-(2,2,3,3,3-pentafluoropropyl)-1H-pyrazol-4-yl]-2-(trifluoromethyl)-4H-pyrimido[1,2-b]pyridazin-4-one] came in with an IC50 of 0.118 µM.

For `C[C@@H](O)c1ccn2c(=O)c(-c3cnn(CC(F)(F)C(F)(F)F)c3)c(C(F)(F)F)nc2c1` [Example 31-1, 8-((1R)-1-hydroxyethyl)-3-(1-(2,2,3,3,3-pentafluoropropyl)-1H-pyrazol-4-yl)-2-(trifluoromethyl)-4H-pyrido[1,2-a]pyrimidin-4-one], it took 0.164 µM to reach half-maximal inhibition (IC50). The IC50 values of the last two compounds are within 1.5-fold of each other.

With `Cc1cnn2c(=O)c(-c3cnc(OCC(F)(F)F)nc3)c(C(F)(F)F)nc2c1` [Example 39-48, 8-methyl-3-[2-(2,2,2-trifluoroethoxy)pyrimidin-5-yl]-2-(trifluoromethyl)-4H-pyrimido[1,2-b]pyridazin-4-one], the half-maximal inhibitory concentration (IC50) came out at 0.518 µM.

In turn, `Cc1ccn2c(=O)c(-c3noc(CCC(F)(F)F)n3)c(C(F)(F)F)nc2c1` [Example 50, 8-Methyl-2-(trifluoromethyl)-3-[5-(3,3,3-trifluoropropyl)-1,2,4-oxadiazol-3-yl]-4H-pyrido[1,2-a]pyrimidin-4-one] came in with an IC50 of 5.38 µM.

As to `O=c1ccn2c(=O)c(-c3cnn(CC(F)(F)C(F)(F)F)c3)c(C(F)(F)F)nc2n1CCl` [Example 65, 1-(Chloromethyl)-7-[1-(2,2,3,3,3-pentafluoropropyl)-1H-pyrazol-4-yl]-8-(trifluoromethyl)-1H,2H,6H-pyrimido[1,2-a][1,3]diazine-2,6-dione], the IC50 came out at 0.0905 µM.

`N#Cc1ccn2c(=O)c(-c3ccc(OCC(F)(F)F)cc3)c(C(F)(F)F)nc2c1` [Example 2-9, 4-oxo-3-(4-(2,2,2-trifluoroethoxy)phenyl)-2-(trifluoromethyl)-4H-pyrido[1,2-a]pyrimidine-8-carbonitrile] came in with an IC50 of 0.44 µM.

In turn, `COc1ccn2c(=O)c(-c3cnn(-c4cccc(F)c4)c3)c(C(F)(F)F)nc2c1` [Example 1-18, 3-(1-(3-fluorophenyl)-1H-pyrazol-4-yl)-8-methoxy-2-(trifluoromethyl)-4H-pyrido[1,2-a]pyrmidin-4-one] showed an IC50 of 0.0252 µM.

Regarding `Cc1cnn2c(=O)c(-c3cnn(CCC(F)(F)F)c3)c(C(F)(F)F)nc2c1` [Example 39-44, 8-methyl-2-(trifluoromethyl)-3-[1-(3,3,3-trifluoropropyl)-1H-pyrazol-4-yl]-4H-pyrimido[1,2-b)pyridazin-4-one], half-maximal inhibition (IC50) required 0.241 µM.

In turn, `O=c1c(-c2cnn(CC(F)(F)C(F)(F)F)c2)c(C(F)(F)F)nc2cc(OCF)cnn12` [Example 47, 8-(Fluoromethoxy)-3-[1-(2,2,3,3,3-pentafluoropropyl)-1H-pyrazol-4-yl]-2-(trifluoromethyl)-4H-pyrimido[1,2-b]pyridazin-4-one] registered a concentration for half-maximal inhibition (IC50) of 0.0335 µM. This IC50 is about 7.2-fold lower than that of the compound before.

`C[C@H](O)c1ccn2c(=O)c(-c3cnn(CC(F)(F)C(F)(F)F)c3)c(C(F)(F)F)nc2c1` [Example 31-2, 8-((1S)-1-hydroxyethyl)-3-(1-(2,2,3,3,3-pentafluoropropyl)-1H-pyrazol-4-yl)-2-(trifluoromethyl)-4H-pyrido[1,2-a]pyrimidin-4-one]: the half-inhibitory concentration (IC50) turned out to be 0.16 µM. Against the preceding compound, the IC50 is about 4.8-fold higher.

Regarding `COc1cnn2c(=O)c(-c3cnc(OCC(F)(F)F)nc3)c(C(F)(F)F)nc2c1` [Example 38, 8-Methoxy-3-[2-(2,2,2-trifluoroethoxy)pyrimidin-5-yl]-2-(trifluoromethyl)-4H-pyrimido[1,2-b]pyridazin-4-one], the IC50 turned out to be 0.0992 µM.

The compound `CCc1nc2cc(OC)ccn2c(=O)c1-c1ccc(OCC(F)(F)F)nc1` [Example 1-60, 2-ethyl-8-methoxy-3-(6-(2,2,2-trifluoroethoxy)-3-pyridinyl)-4H-pyrido[1,2-a]pyrimidin-4-one] displayed a concentration for half-maximal inhibition (IC50) of 0.0378 µM.

In turn, `CCCn1cc(-c2c(C(F)(F)F)nc3cc(OC)ccn3c2=O)cn1` [Example 1-76, 8-methoxy-3-(1-propyl-1H-pyrazol-4-yl)-2-(trifluoromethyl)-4H-pyrido[1,2-a]pyrimidin-4-one] had a half-inhibitory concentration (IC50) of 0.0176 µM. This IC50 is about 2.1-fold lower than that of the compound before.

Compound `O=c1c(-c2cnn(CC(F)(F)C(F)(F)F)c2)c(C(F)(F)F)nc2ccc(C3CC3)cn12` [Example 39-21, 7-cyclopropyl-3-[1-(2,2,3,3,3-pentafluoropropyl)-1H-pyrazol-4-yl]-2-(trifluoromethyl)-4H-pyrido[1,2-a]pyrimidin-4-one] came in with an IC50 of 0.11 µM.

As to `O=c1c(-c2cnn(CC(F)(F)C(F)(F)F)c2)c(C(F)(F)F)nc2cc(N3CCC3)ccn12` [Example 1-88, 8-(1-azetidinyl)-3-(1-(2,2,3,3,3-pentafluoropropyl)-1H-pyrazol-4-yl)-2-(trifluoromethyl)-4H-pyrido[1,2-a]pyrimidin-4-one], it took 2.35 µM to reach half-maximal inhibition (IC50).

Regarding `O=c1c(-c2cnn(CCC(F)(F)F)c2)c(C(F)(F)F)nc2ccc(Cl)cn12` [Example 39-17, 7-chloro-2-(trifluoromethyl)-3-[1-(3,3,3-trifluoropropyl)-1H-pyrazol-4-yl]-4H-pyrido[1,2-a]pyrimidin-4-one], the half-inhibitory concentration (IC50) was 0.0024 µM.

Take `Cc1cnn2c(=O)c(-c3cnn(CC4CC(F)(F)C4)c3)c(C(F)(F)F)nc2c1` [Example 39-52, 3-{1-[(3,3-difluorocyclobutyl)methyl]-1H-pyrazol-4-yl)-8-methyl-2-(trifluoromethyl)-4H-pyrimido[1,2-b]pyridazin-4-one]: the IC50 is 0.42 µM.

`COc1ccn2c(=O)c(-c3ccc(OCC#N)cc3)c(C(F)(F)F)nc2n1` [Example 1-40, (4-(8-methoxy-4-oxo-2-(trifluoromethyl)-4H-pyrimido[1,2-a]pyrimidin-3-yl)phenoxy)acetonitrile] came in with an IC50 of 0.0186 µM.

`COc1ccn2c(=O)c(-c3ccc(CCC(F)(F)F)cc3)c(C(F)(F)F)nc2c1` [Example 7-5, 8-methoxy-2-(trifluoromethyl)-3-(4-(3,3,3-trifluoropropyl)phenyl)-4H-pyrido[1,2-a]pyrimidin-4-one] had a concentration for half-maximal inhibition (IC50) of 0.0119 µM.

On to `COc1ccn2c(=O)c(-c3ccc(O[C@H](C)C#N)cc3)c(C(F)(F)F)nc2n1` [Example 8-6, (2R)-2-(4-(8-methoxy-4-oxo-2-(trifluoromethyl)-4H-pyrimido[1,2-a]pyrimidin-3-yl)phenoxy)propanenitrile], for which the half-inhibitory concentration (IC50) was 0.0235 µM.

On to `COc1ccn2c(=O)c(-c3cccc(OCC(F)(F)F)c3)c(C(F)(F)F)nc2c1` [Example 62, 8-Methoxy-3-[3-(2,2,2-trifluoroethoxy)phenyl]-2-(trifluoromethyl)-4H-pyrido[1,2-a]pyrimidin-4-one], for which the 50% inhibitory concentration (IC50) was over 67 µM.
